Where two headings read alike, the source gives them in different places.
Assays:
[1] = target: KRAS-G13D (Homo sapiens, UniProt P01116, G13D); assay: SOS-catalyzed nucleotide exchange assay (Procedure A, TR-FRET), KRAS-G13D; assay type: biochemical; conditions: nucleotide exchange, Procedure A; read-out: KRAS G13D GNE IC50
[2] = target: KRAS-G12D (Homo sapiens, UniProt P01116, G12D); assay: SOS-catalyzed nucleotide exchange assay (Procedure A, TR-FRET), KRAS-G12D; assay type: biochemical; conditions: nucleotide exchange, read-out: KRAS G12D GNE IC50
In short: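 Signal ratio (520/495 nm, excitation 340 nm) reports Bodipy-GDP retention on biotinylated RAS after SOS-catalyzed exchange with 3 mM GTP. SOS was 40 nM, except 160 nM for G12V. Room-temperature exchange lasted 60 min (90 min for G12V), following a 60 min compound preincubation.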

[3] = target: HRAS (Homo sapiens, UniProt P01112); assay: SOS-catalyzed nucleotide exchange assay (Procedure A, TR-FRET), HRAS; assay type: biochemical; conditions: read-out: HRAS GNE IC50
From the text: (§1) Procedure for SOS-Catalyzed Nucleotide Exchange Assay for KRAS-WT, G12C/D/V, G13D, HRAS, and NRAS (Procedure A)
(§2) Recombinant KRAS-G12C protein used in this assay has an additional triple mutation (C51S/C80L/C118S). Whereas KRAS-WT, G12D/V, G13D, HRAS and NRAS are in context of their WT protein sequence background. Specifically, the SOS-catalyzed nucleotide exchange assay utilizes a preformed TR-FRET complex containing a specific biotinylated RAS protein (KRAS-WT, G12C/V/D, G13D, HRAS, NRAS; described above) with Bodipy-GDP, and Terbium-streptavidin. Compounds are preincubated with this complex for 60 minutes. Subsequently, recombinant human SOS protein and unlabeled GTP are added to initiate the exchange reaction. Small molecule inhibitors stabilize the Bodipy-GDP complex whereas the untreated protein rapidly exchanges Bodipy-GDP for unlabeled GTP resulting in reduced TR-FRET signal.
(§3) To assemble the preformed TR-FRET complexes, each biotinylated RAS protein is diluted to 2 μM in an EDTA Buffer (20 mM HEPES pH 7.5, 50 mM sodium chloride, 10 mM EDTA, and 0.01% Tween) and incubated at room temperature for one hour. This mixture is then further diluted to 90 nM in an Assay Buffer (20 mM HEPES pH 7.5, 150 mM sodium chloride, 10 mM magnesium chloride, and 0.005% Tween) containing 15 nM of Terbium-Streptavidin (Invitrogen, catalog #PV3577) and 900 nM of Bodipy-GDP (Invitrogen, catalog #G22360) and incubated at room temperature for six hours. It should be noted that this preformed TR-FRET complex for each of the RAS protein were made ahead of time, aliquoted and stored at −80° C. until the day of the experiment.
(§4) Each test compound (10 mM stock in DMSO) is diluted in DMSO to make a final-10-point, 3-fold dilution and is acoustically dispensed into a 384-well assay plate (Corning, catalog #3820) using an Echo 550 (Labcyte). Each well of the assay plate receives 3 μL of a specific 3×RAS preformed TR-FRET complex and 3 μL of Assay Buffer and is incubated at room temperature for 60 minutes (preincubation time). Each well then receives 3 μL of 3×recombinant human SOS protein and GTP (Sigma, G8877) in Assay Buffer and is incubated at room temperature for 30 minutes (G13D), 60 minutes (KRAS WT/G12C/D, H/NRAS) or 90 minutes for G12V. The final reaction in each well of 9 μL consists of 3 mM GTP, specific Ras and SOS proteins in the following concentrations: KRAS-G12C/SOS=3 nM/40 nM, KRAS-WT and G12D/SOS=1 nM/40 nM, KRAS-G12V/SOS=1.25 nM/160 nM. KRAS-G13D/SOS=1.25 nM/0 nM, HRAS and NRAS=1.25 nM/40 nM.
(§5) The time-resolved fluorescence resonance energy transfer (TR-FRET) signal is measured on an Envision (PerkinElmer) plate reader: Excitation filter=340 nm; emission 1=495 nm; emission2=520 nm; dichroic mirror=D400/D505; delay time=[…]. The signal of each well is determined as the ratio of the emission at 520 nm to that at 495 nm. Percent effect of each well is determined after normalization to control wells containing DMSO (no effect) or a saturating concentration of inhibitor (max effect). The apparent effect as a function of compound concentration is fit to a four-parameter logistic equation.

[4] = tested on: SW620 cells; assay: Cellular phospho-ERK assay, SW620 cells (homozygous KRAS-G12V); assay type: cell-based; conditions: Homo sapiens, read-out: SW620 pERK IC50
In short: (§6)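 ERK phosphorylation relative to total ERK is the endpoint, detected by AlphaScreen-based SureFire multiplex following a 2-hour treatment at 37 °C. Compounds are titrated 1:3 over ten points from 30 μM.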

[5] = target: NRAS (Homo sapiens, UniProt P01111); assay: SOS-catalyzed nucleotide exchange assay (Procedure A, TR-FRET), NRAS; assay type: biochemical; conditions: read-out: NRAS GNE IC50
From the text: as §1, §2, §3
as §4, with “The final reaction in each well of 9 μL consists of 3 mM GTP, specific Ras and SOS proteins in the following concentrations: KRAS-G12C/SOS=3 nM/40 nM, KRAS-WT and G12D/SOS=1 nM/40 nM, KRAS-G12V/SOS=1.25 nM/160 nM. KRAS-G13D/SOS=1.25 nM/0 nM, HRAS and NRAS=1.25 nM/40 nM.” left out
as §5, with “The apparent effect as a function of compound concentration is fit to a four-parameter logistic equation.” left out

[6] = target: KRAS-WT (Homo sapiens, UniProt P01116); assay: SOS-catalyzed nucleotide exchange assay (Procedure A, TR-FRET), KRAS-WT; assay type: biochemical; conditions: nucleotide exchange, read-out: KRAS WT GNE IC50
In short: (§7)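 TR-FRET 520/495 nm ratio read after SOS-driven exchange of Bodipy-GDP for unlabeled GTP (3 mM) on biotinylated RAS bound to Tb-streptavidin. There was a 60 min compound preincubation, RT. Final RAS/SOS and reaction times: G12C 3 nM/40 nM; WT 1 nM/40 nM; NRAS 1.25 nM/40 nM, each 60 min. G12V was 1.25 nM/160 nM, 90 min.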

[7] = tested on: AsPC-1 cells; assay: Cellular phospho-ERK assay, AsPC-1 cells (homozygous KRAS-G12D); assay type: cell-based; conditions: Homo sapiens, ASPC1, 2 h, read-out: AsPC1 pERK IC50
In short: as §6

[8] = target: KRAS-G12V (Homo sapiens, UniProt P01116, G12V); assay: SOS-catalyzed nucleotide exchange assay (Procedure A, TR-FRET), KRAS-G12V; assay type: biochemical; conditions: nucleotide exchange, read-out: KRAS G12V GNE IC50
In short: as §7

[9] = target: KRAS-G12C (C51S/C80L/C118S) (Homo sapiens, UniProt P01116, C118S/C51S/C80L/G12C); assay: SOS-catalyzed nucleotide exchange assay (Procedure A, TR-FRET), KRAS-G12C; assay type: biochemical; conditions: nucleotide exchange, Procedure A; read-out: KRAS G12C GNE IC50
In short: as §7

[10] = tested on: MKN-1 cells; assay: Cellular phospho-ERK assay, MKN-1 cells (amplified wild-type KRAS); assay type: cell-based; conditions: Homo sapiens, read-out: MKN1 pERK IC50
In short: as §6

[11] = tested on: PANC08.13 cells; assay: Cellular phospho-ERK assay, PANC08.13 cells (homozygous KRAS-G12D); assay type: cell-based; conditions: Homo sapiens, PANC-08-13, KRAS-G12D, 2 hours, read-out: PANC-08.13 pERK IC50
In short: as §6

[12] = amplified wild-type KRAS, 2 hours
[13] = SW-620, 2 hours compound incubation

Chain of KRAS-G12V (P01116 with tags, fused parts or gaps isoform P01116-2 G12V): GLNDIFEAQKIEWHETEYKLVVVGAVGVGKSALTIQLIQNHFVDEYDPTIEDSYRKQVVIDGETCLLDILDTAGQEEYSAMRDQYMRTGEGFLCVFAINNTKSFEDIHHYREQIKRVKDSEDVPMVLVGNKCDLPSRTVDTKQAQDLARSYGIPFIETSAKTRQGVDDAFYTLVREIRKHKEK
Chain of HRAS (P01112 with tags, fused parts or gaps): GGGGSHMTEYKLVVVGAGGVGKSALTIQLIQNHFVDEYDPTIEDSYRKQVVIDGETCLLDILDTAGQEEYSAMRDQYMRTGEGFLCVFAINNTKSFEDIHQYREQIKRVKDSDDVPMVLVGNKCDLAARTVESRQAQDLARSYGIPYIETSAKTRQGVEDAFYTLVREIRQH
Chain of KRAS-G12D (P01116 with tags, fused parts or gaps isoform P01116-2 G12D): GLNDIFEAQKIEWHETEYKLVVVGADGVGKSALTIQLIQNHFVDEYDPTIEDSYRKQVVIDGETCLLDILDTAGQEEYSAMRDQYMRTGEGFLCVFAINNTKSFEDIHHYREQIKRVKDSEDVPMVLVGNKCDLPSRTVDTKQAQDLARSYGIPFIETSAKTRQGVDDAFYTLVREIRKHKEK
Chain of KRAS-G13D (P01116 with tags, fused parts or gaps isoform P01116-2 G13D): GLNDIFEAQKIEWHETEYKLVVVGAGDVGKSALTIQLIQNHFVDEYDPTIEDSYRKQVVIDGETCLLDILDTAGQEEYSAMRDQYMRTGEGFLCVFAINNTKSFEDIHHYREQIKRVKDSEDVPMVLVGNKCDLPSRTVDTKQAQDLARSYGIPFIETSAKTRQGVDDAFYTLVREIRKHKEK
Chain of KRAS-G12C (C51S/C80L/C118S) (P01116 with tags, fused parts or gaps isoform P01116-2 G12C/C51S/C80L/C118S): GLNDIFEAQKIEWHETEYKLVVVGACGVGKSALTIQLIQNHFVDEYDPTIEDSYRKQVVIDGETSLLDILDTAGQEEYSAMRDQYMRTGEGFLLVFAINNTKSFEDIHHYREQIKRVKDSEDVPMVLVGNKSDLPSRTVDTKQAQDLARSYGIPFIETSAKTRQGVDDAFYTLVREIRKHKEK
Chain of KRAS-WT (P01116 with tags, fused parts or gaps isoform P01116-2): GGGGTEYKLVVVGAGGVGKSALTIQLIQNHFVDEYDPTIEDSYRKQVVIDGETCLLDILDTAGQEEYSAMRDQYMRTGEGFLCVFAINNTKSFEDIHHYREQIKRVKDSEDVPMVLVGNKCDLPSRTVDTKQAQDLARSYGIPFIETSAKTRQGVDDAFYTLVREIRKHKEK
Chain of NRAS (P01111 with tags, fused parts or gaps): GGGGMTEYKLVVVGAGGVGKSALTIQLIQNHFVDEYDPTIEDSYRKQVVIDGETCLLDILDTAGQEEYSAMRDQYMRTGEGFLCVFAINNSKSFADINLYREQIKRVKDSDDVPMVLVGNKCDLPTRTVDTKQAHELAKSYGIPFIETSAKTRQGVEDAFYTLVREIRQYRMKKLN

Row | IC50 [1] [nM] | IC50 [2] [nM] | IC50 [3] [nM] | IC50 [6] [nM] | IC50 [8] [nM] | IC50 [9] [nM] | IC50 [4, 13] [nM] | IC50 ([7]; 2 hours compound incubation) [nM] | IC50 ([10]; 2 hours compound incubation) [nM] | Compound | IC50 ([4]; SW-620, KRAS-G12V, 2 hours) [nM] | IC50 [5] [nM] | IC50 ([7]; KRAS-G12D, 2 hours) [nM] | IC50 [10, 12] [nM] | IC50 [11] [nM]
1 | 45.8 | 4.31 | 2220 | 20 | 10.4 | 19.4 | 36.1 | 58.8 | 39.3 | COC1(C)CN(C[C@@]2(COc3nc(N4CCOC[C@@](C)(O)C4)c4c(n3)sc3c(-c5c(C6(F)CC6)c(Cl)cc6[nH]ncc56)nccc34)CC2(F)F)C1 [Ex-240, (6S)-4-(8-(6-chloro-5-(1-fluorocyclopropyl)-1H-indazol-4-yl)-2-(((R)-2,2-difluoro-1-((3-methoxy-3-methylazetidin-1-yl)methyl)cyclopropyl)metho-xy)pyrido[4′,3′:4,5]thieno[2,3-d]pyrimidin-4-yl)-6-methyl-1,4-oxazepan-6-ol] | – | – | – | – | –
2 | 9.94 | 3.26 | 4250 | 5.56 | 8.11 | 23.5 | 24 | 23.6 | 18.7 | C[C@@]1(O)COCCN(c2nc(OC[C@@]34CCCN3C/C(=C\F)C4)nc3sc4c(-c5c(C6(F)CC6)c(Cl)cc6[nH]ncc56)nccc4c23)C1 [Ex-267, (6S)-4-(8-(6-chloro-5-(1-fluorocyclopropyl)-1H-indazol-4-yl)-2-(((S,Z)-2-(fluoromethylene)tetrahydro-1H-pyrrolizin-7a(5H)-yl)methoxy)pyrido[4′,3′:4,5]thieno[2,3-d]pyrimidin-4-yl)-6-methyl-1,4-oxazepan-6-ol] | – | – | – | – | –
3 | 5.03 | 1.65 | 5130 | 4.38 | 5.09 | 38.7 | 10.5 | 12.3 | 24.2 | C#Cc1cccc2cc3[nH]ncc3c(-c3nccc4c3sc3nc(OC[C@@]56CCCN5C[C@H](F)C6)nc(N5CCOC[C@@](C)(O)C5)c34)c12 [Ex-171, (6S)-4-(8-(5-ethynyl-1H-benzo[f]indazol-4-yl)-2-(((2R,7aS)-2-fluorotetrahydro-1H-pyrrolizin-7a(5H)-yl)methoxy)pyrido[4′,3′:4,5]thieno[2,3-d]pyrimidin-4-yl)-6-methyl-1,4-oxazepan-6-ol] | – | – | – | – | –
4 | 13.6 | 2.91 | 9430 | 9.46 | 12 | 47.7 | 49.7 | 53 | 158 | C[C@@]1(O)COCCN(c2nc(OC[C@@]34CCCN3C/C(=C/F)C4)nc3sc4c(-c5c(C6CC6)c(Cl)cc6[nH]ncc56)nccc4c23)C1 [Ex-209, (6S)-4-(8-(6-chloro-5-cyclopropyl-1H-indazol-4-yl)-2-(((S,E)-2-(fluoro-methylene)tetra-hydro-1H-pyrrol-izin-7a(5H)-yl)-methoxy)pyrido [4′,3′:4,5]thieno [2,3-d]pyrimidin-4-yl)-6-methyl-1,4-oxazepan-6-ol] | – | – | – | – | –
5 | 18.4 | 4.1 | 1060 | 20.1 | 15.9 | 15.2 | 49.6 | 57.6 | 49.7 | C[C@H]1CCN1C[C@@]1(COc2nc(N3CCOC[C@@](C)(O)C3)c3c(n2)sc2c(-c4c(C5(F)CC5)c(Cl)cc5[nH]ncc45)nccc23)CC1(F)F [Ex-253, (6S)-4-(8-(6-chloro-5-(1-fluorocyclopropyl)-1H-indazol-4-yl)-2-(((R)-2,2-difluoro-1-(((S)-2-methylazetidin-1-yl)methyl)cyclopropyl)metho-xy)pyrido[4′,3′:4,5]thieno[2,3-d]pyrimidin-4-yl)-6-methyl-1,4-oxazepan-6-ol] | – | – | – | – | –

Row | Compound | IC50 [1] [nM] | IC50 [2] [nM] | IC50 [3] [nM] | IC50 [6] [nM] | IC50 [8] [nM] | IC50 [9] [nM] | IC50 [4, 13] [nM] | IC50 ([7]; 2 hours compound incubation) [nM] | IC50 ([10]; 2 hours compound incubation) [nM] | IC50 ([4]; SW-620, KRAS-G12V, 2 hours) [nM] | IC50 [5] [nM] | IC50 ([7]; KRAS-G12D, 2 hours) [nM] | IC50 [10, 12] [nM] | IC50 [11] [nM]
6 | CN(C)C[C@@]1(COc2nc(N3CCOC[C@@](C)(O)C3)c3c(n2)sc2c(-c4c(C5CC5)c(Cl)cc5[nH]ncc45)nccc23)CC1(F)F [Ex-131, (6S)-4-(8-(6-chloro-5-cyclopropyl-1H-indazol-4-yl)-2-(((R)-1-((dimeth-ylamino)methyl)-2,2-difluorocyclo-propyl)methoxy)-pyrido[4′,3′:4,5]thieno[2,3-d]pyr-imidin-4-yl)-6-methyl-1,4-oxaze-pan-6-ol] | 7.21 | 3.57 | 389 | 11.3 | 18.2 | 97.9 | – | – | – | 15.1 | 5160 | 21.8 | 22.8 | –
7 | Cc1cc2[nH]ncc2c(-c2nccc3c2sc2nc(OC[C@]4(CN(C)C)CC4(F)F)nc(N4CCOC[C@@](C)(O)C4)c23)c1C(F)(F)F [Ex-130, (6S)-4-(2-(((R)-1-((dimethylamino)-methyl)-2,2-di-fluorocyclopropyl)-methoxy)-8-(6-methyl-5-(trifluoro-methyl)-1H-indazol-4-yl)pyrido[4′,3′: 4,5]thieno[2,3-d]pyrimidin-4-yl)-6-methyl-1,4-oxaze-pan-6-ol] | 75.2 | 20.3 | 4920 | 115 | 77.2 | 101 | – | – | – | 116 | – | 68.7 | 248 | 27.7
